Results published in ChEMBL document CHEMBL3097998, “Oxidative cleavage of DNA by pentamethine carbocyanine dyes irradiated with long-wavelength visible light” (Bioorg Med Chem Lett, 2014).
Active and inactive are the calls of the source. The rule behind the calls is not given here.

Key:
DNA [1] = assay: Binding affinity to calf thymus DNA at 10 uM incubated for 60 mins under dark condition by fluorescence emission spectra analysis; format: nucleic-acid assay; conditions: Bos taurus
DNA [2] = assay: Binding affinity to calf thymus DNA at 10 uM after 60 mins by UV-visible absorption spectra analysis; format: nucleic-acid assay; conditions: Bos taurus
DNA [3] = assay: Binding affinity to calf thymus DNA at 10 uM using sequential DNA addition followed by 15 mins incubation under dark condition by UV-visible spectroscopy; format: nucleic-acid assay; conditions: Bos taurus
Escherichia coli [4] = assay: Induction of Escherichia coli pUC19 DNA photocleavage at 10 uM treated for 60 mins followed by irradiation at 575 nm for 60 mins by agarose gel electrophoresis in presence of sodium benzoate
Escherichia coli [5] = assay: Induction of Escherichia coli pUC19 DNA photocleavage at 10 uM treated for 60 mins followed by irradiation at 575 nm for 60 mins by agarose gel electrophoresis in presence of sodium azide
Escherichia coli [6] = assay: Induction of Escherichia coli pUC19 DNA photocleavage assessed as conversion of supercoiled DNA to linear and nicked form of DNA at 10 uM treated for 60 mins followed by irradiation at 700 nm for 60 mins by agarose gel electrophoresis (reference value: 3%)
Escherichia coli [7] = assay: Induction of Escherichia coli pUC19 DNA photocleavage assessed as conversion of supercoiled DNA to linear and nicked form of DNA at 10 uM treated for 60 mins followed by irradiation at 623 nm for 60 mins by agarose gel electrophoresis (reference value: 10%)
Escherichia coli [8] = assay: Induction of Escherichia coli pUC19 DNA photocleavage assessed as conversion of supercoiled DNA to linear and nicked form of DNA at 10 uM treated for 60 mins followed by irradiation at 588 nm for 60 mins by agarose gel electrophoresis (reference value: 15%)
Escherichia coli [9] = assay: Induction of Escherichia coli pUC19 DNA cleavage assessed as conversion of supercoiled DNA to linear and nicked form of DNA at 10 uM after 60 mins by agarose gel electrophoresis
Escherichia coli [10] = assay: Induction of Escherichia coli pUC19 DNA photocleavage assessed as conversion of supercoiled DNA to linear and nicked form of DNA at 10 uM treated for 60 mins followed by irradiation at 575 nm for 60 mins by agarose gel electrophoresis (reference value: 6 +/- 2%)
Escherichia coli [11] = assay: Induction of Escherichia coli pUC19 DNA photocleavage assessed as conversion of supercoiled DNA to linear and nicked form of DNA after 60 mins followed by irradiation at 575 nm for 60 mins by agarose gel electrophoresis

## CC1(C)C(/C=C/C=C/C=C2/N(CCC[N+](C)(C)C)c3ccc4ccccc4c3C2(C)C)=[N+](CCC[N+](C)(C)C)c2ccc3ccccc3c21
DNA [1]
  Activity: Active
DNA [2]
  Activity: Active
DNA [3]
  Activity: Active
Escherichia coli [4]
  Activity: inactive
Escherichia coli [5]
  Activity: inactive
Escherichia coli [6]
  Activity: 34%
Escherichia coli [7]
  Activity: 41%
Escherichia coli [8]
  Activity: 20%
Escherichia coli [9]
  Activity: 1%
Escherichia coli [10]
  Activity: 47%

## CC1(C)C(/C=C/C(Br)=C/C=C2/N(CCC[N+](C)(C)C)c3ccc4ccccc4c3C2(C)C)=[N+](CCC[N+](C)(C)C)c2ccc3ccccc3c21
DNA [1]
  Activity: Active
DNA [2]
  Activity: Active
DNA [3]
  Activity: Active
Escherichia coli [11]
  Activity: Dose-dependent effect
Escherichia coli [4]
  Activity: inactive
Escherichia coli [5]
  Activity: inactive
Escherichia coli [6]
  Activity: 59%
Escherichia coli [7]
  Activity: 56%
Escherichia coli [8]
  Activity: 47%
Escherichia coli [9]
  Activity: 7%
Escherichia coli [10]
  Activity: 78%

## CC1(C)C(/C=C/C(Cl)=C/C=C2/N(CCCc3ccccc3)c3ccc4ccccc4c3C2(C)C)=[N+](CCCc2ccccc2)c2ccc3ccccc3c21
DNA [1]
  Activity: Active
Escherichia coli [6]
  Activity: 2%
Escherichia coli [7]
  Activity: 8%
Escherichia coli [8]
  Activity: 13%
Escherichia coli [9]
  Activity: 4%
Escherichia coli [10]
  Activity: 13%

## CN1/C(=C/C=C(Cl)/C=C/C2=[N+](C)c3ccc4ccccc4c3C2(C)C)C(C)(C)c2c1ccc1ccccc21
DNA [1]
  Activity: Active
DNA [2]
  Activity: Active
DNA [3]
  Activity: Active
Escherichia coli [11]
  Activity: Dose-dependent effect
Escherichia coli [4]
  Activity: inactive
Escherichia coli [5]
  Activity: inactive
Escherichia coli [6]
  Activity: 33%
Escherichia coli [7]
  Activity: 42%
Escherichia coli [8]
  Activity: 46%
Escherichia coli [9]
  Activity: 2%
Escherichia coli [10]
  Activity: 83%

## CC1(C)C(/C=C/C(Cl)=C/C=C2/N(CCC[N+](C)(C)C)c3ccc4ccccc4c3C2(C)C)=[N+](CCC[N+](C)(C)C)c2ccc3ccccc3c21
DNA [1]
  Activity: Active
DNA [2]
  Activity: Active
DNA [3]
  Activity: Active
Escherichia coli [11]
  Activity: Dose-dependent effect
Escherichia coli [4]
  Activity: inactive
Escherichia coli [5]
  Activity: inactive
Escherichia coli [6]
  Activity: 67%
Escherichia coli [7]
  Activity: 48%
Escherichia coli [8]
  Activity: 55%
Escherichia coli [9]
  Activity: 5%
Escherichia coli [10]
  Activity: 91%

## CN1/C(=C/C=C/C=C/C2=[N+](C)c3ccc4ccccc4c3C2(C)C)C(C)(C)c2c1ccc1ccccc21
DNA [1]
  Activity: Active
DNA [2]
  Activity: Active
DNA [3]
  Activity: Active
Escherichia coli [4]
  Activity: inactive
Escherichia coli [5]
  Activity: inactive
Escherichia coli [6]
  Activity: 18%
Escherichia coli [7]
  Activity: 29%
Escherichia coli [8]
  Activity: 25%
Escherichia coli [9]
  Activity: 2%
Escherichia coli [10]
  Activity: 59%

## CN1/C(=C/C=C(Br)/C=C/C2=[N+](C)c3ccc4ccccc4c3C2(C)C)C(C)(C)c2c1ccc1ccccc21
DNA [1]
  Activity: Active
DNA [2]
  Activity: Active
DNA [3]
  Activity: Active
Escherichia coli [11]
  Activity: Dose-dependent effect
Escherichia coli [4]
  Activity: inactive
Escherichia coli [5]
  Activity: inactive
Escherichia coli [6]
  Activity: 49%
Escherichia coli [7]
  Activity: 46%
Escherichia coli [8]
  Activity: 55%
Escherichia coli [9]
  Activity: 3%
Escherichia coli [10]
  Activity: 86%
